Four compounds from patent US12252524B2, “GIP/GLP1 co-agonist compounds” (Eli Lilly and Company, priority 2018, dated 2025) can be followed below.

The target in assay [1] is T1, human GLP-1R (Homo sapiens, UniProt P43220). The experiment in a line: GLP-1R CHO cell β-arrestin recruitment assay. The class given is cell-based. Also noted: host or cells: CHO-K1 PathHunter cells, assay-ready frozen. As to conditions: for EC50: CHO-K1 cells; for hGLP1R B-Arrestin2 % Top: normalized to GLP-1 maximum control. An excerpt:
Activated G-protein coupled receptors can interact with the β-arrestin family of signalling proteins. […] CHO-K1 cells expressing Pro-Link-tagged Human GLP-1R and enzyme-acceptor-tagged β-arrestin-2 may be obtained from DiscoveRx and prepared as assay-ready frozen cells. Test peptides are solubilized in DMSO and serial dilutions are perfomed using the Echo acoustic dispenser (LabCyte). Assay media is the PathHunter Cell Assay Buffer (DiscoveRx) containing 0.1% w/v hydrolyzed Casein (Sigma). […] Plates are incubated for 90 minutes in a 37′C/5% C02 incubator and 10 ul of PathHunter detection reagent is added (DiscoveRx) and plates are incubated at room temperature for 60 minutes. Luminescence signal is measured. Peptide concentration-response curves fit to a four-parameter logistic model to calculate potency as an EC50.
On the technique in general: Recruitment of arrestin is a read-out of receptor activation apart from second messengers.

The target in the next assay is T2, human GIP receptor (Homo sapiens, UniProt P48546).
T2 construct: expressed in transfected cells; crude membranes
T2 sequence (P48546 22-466): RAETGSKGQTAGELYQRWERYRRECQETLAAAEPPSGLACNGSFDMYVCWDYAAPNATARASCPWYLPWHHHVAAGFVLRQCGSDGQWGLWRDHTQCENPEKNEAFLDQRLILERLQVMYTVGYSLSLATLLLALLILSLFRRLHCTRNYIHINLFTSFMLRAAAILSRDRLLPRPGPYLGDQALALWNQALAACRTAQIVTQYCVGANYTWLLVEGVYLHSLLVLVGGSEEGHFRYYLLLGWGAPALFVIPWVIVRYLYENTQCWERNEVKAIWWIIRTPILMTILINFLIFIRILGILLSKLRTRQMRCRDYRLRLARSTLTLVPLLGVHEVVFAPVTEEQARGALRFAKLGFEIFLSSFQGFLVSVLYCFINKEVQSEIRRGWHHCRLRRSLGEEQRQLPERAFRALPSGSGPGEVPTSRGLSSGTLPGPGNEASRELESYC
The experiment in a line: [125I]-GIP binding (SPA), human GIP receptor. The settings on record: read-out: hGIPR Ki, nM (SEM, n).

A further assay deals with T3, human Gcg receptor (Homo sapiens, UniProt P47871).
T3 construct: expressed in transfected cells; crude membranes
T3 sequence (P47871 26-477): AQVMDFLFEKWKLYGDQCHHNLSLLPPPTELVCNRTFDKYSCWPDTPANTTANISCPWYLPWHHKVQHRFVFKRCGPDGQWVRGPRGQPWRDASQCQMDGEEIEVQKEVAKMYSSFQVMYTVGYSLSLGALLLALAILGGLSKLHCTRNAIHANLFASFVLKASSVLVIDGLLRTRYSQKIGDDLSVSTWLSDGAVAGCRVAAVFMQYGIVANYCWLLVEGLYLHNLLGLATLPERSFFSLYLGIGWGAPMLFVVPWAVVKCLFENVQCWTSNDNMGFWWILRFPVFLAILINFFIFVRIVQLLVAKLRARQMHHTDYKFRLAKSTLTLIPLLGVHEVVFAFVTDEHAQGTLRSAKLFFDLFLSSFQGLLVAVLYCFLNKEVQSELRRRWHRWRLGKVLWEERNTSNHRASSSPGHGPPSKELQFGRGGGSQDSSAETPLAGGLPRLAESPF
Nature of the assay: [125I]-Glucagon binding (SPA), human Gcg receptor. As to conditions: read-out: hGLcgR Ki, nM (SEM, n). In short, it runs like this: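 Cell pellets were lysed in hypotonic Tris buffer, pH 7.5, homogenized, and spun at low then high speed to give crude membranes. Ki was derived from the fitted IC50.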

Assay [2] addresses human GLP-1 receptor (GLP-1R) (Homo sapiens, UniProt P43220). The experiment in a line: cAMP pharmacological functional assay in presence of casein, hGLP-1R. Type of assay: cell-based. The settings on record: HEK293 cells expressing hGLP-1R, 0.1% Casein, geometric mean; read-out: hGLP1R cAMP Rel EC50 nM (SEM, n).
The target in assay [3] is T4, gastric inhibitory peptide receptor (GIPR) (Homo sapiens, UniProt P48546).
T4 sequence (P48546 22-466): T2 sequence (P48546 22-466)
The experiment in a line: cAMP pharmacological functional assay in presence of casein, hGIPR. The class given is cell-based. As to conditions: HEK293 cells expressing hGIPR, 0.1% Casein, geometric mean; read-out: hGIPR cAMP Rel EC50 nM (SEM, n).

For assay [4], the target named is T1, human GLP-1R. The experiment in a line: [125I]-GLP-1 binding (SPA), human GLP-1 receptor. As to conditions: read-out: hGLP1R Ki, (nM) (SEM, n). Also noted: expressed in transfected cells; crude membranes. The essentials:
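Crude-membrane binding assay; one membrane prep included 1 mM MgCl2 and 25 units/ml DNAse I during lysis. Assay buffer at pH 7.4 contains 0.1% (w/v) bacitracin and 0.003% (w/v) TWEEN-20. Ki is reported as geometric mean.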

Setting [5] is: 0.1% w/v hydrolyzed Casein, read-out: hGLP1R B-Arrestin2 Rel EC50.
[6] abbreviates: PathHunter β-arrestin-2 recruitment, 0.1% casein, read-out: hGLP1R B-Arrestin2 Rel EC50 uM (SEM, n).

Like-named read-outs stand apart in the source and are kept apart here. Numbered stars: 1 amine (or outer) side, 2 acyl side, 3 side chain; on linkers, the order of the positions; unused ones are H or OH. Square brackets hold non-standard residues; d marks the D form. Side chains are listed from the residue outwards. Peptide text beside a SMILES is read from it. * marks the point of attachment. C20 diacid = O=C(O)CCCCCCCCCCCCCCCCCCC(=O)*; γGlu = O=C(O)[C@H](CCC(=O)[*:2])N[*:1]; αMeL = CC(C)C[C@](C)(N)C(=O)O; Orn = NCCC[C@H](N)C(=O)O; AEEA = NCCOCCOCC(=O)O; Aib = CC(C)(N)C(=O)O

human GLP-1 receptor (GLP-1R), sequence (P43220 24-463): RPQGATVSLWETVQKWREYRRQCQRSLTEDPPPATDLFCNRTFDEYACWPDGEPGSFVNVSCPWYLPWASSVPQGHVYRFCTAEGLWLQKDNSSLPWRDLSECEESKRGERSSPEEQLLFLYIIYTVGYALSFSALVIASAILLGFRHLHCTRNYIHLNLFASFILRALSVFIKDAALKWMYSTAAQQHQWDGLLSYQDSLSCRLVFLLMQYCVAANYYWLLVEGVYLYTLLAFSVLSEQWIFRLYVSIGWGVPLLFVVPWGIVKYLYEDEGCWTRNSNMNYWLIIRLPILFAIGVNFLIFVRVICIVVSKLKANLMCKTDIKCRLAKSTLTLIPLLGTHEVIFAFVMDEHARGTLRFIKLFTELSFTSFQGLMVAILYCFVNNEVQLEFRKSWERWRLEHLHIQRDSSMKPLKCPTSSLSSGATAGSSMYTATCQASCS
T1 sequence (P43220 24-463): as above

Turning to `CC[C@H](C)[C@H](NC(=O)[C@H](CC(C)C)NC(=O)[C@H](Cc1ccc(O)cc1)NC(=O)[C@@H](CCC(=O)O)NC(=O)[C@@H](NC(=O)[C@H](Cc1ccccc1)NC(=O)[C@H](C)NC(=O)C(C)(C)NC(=O)[C@H](CCC(N)=O)NC(=O)[C@H](C)NC(=O)[C@H](CCCCNC(=O)COCCOCCNC(=O)COCCOCCNC(=O)CC[C@H](NC(=O)CCCCCCCCCCCCCCCCCCC(=O)O)C(=O)O)NC(=O)[C@H](CCCCN)NC(=O)[C@H](CC(=O)O)NC(=O)[C@H](CC(C)C)NC(=O)[C@](C)(CC(C)C)NC(=O)[C@@H](NC(=O)[C@H](CO)NC(=O)[C@H](Cc1ccc(O)cc1)NC(=O)[C@H](CC(=O)O)NC(=O)[C@H](CO)NC(=O)[C@@H](NC(=O)[C@H](Cc1ccccc1)NC(=O)[C@@H](NC(=O)CNC(=O)[C@H](CCC(=O)O)NC(=O)C(C)(C)NC(=O)[C@H](N)Cc1ccc(O)cc1)[C@@H](C)O)[C@@H](C)O)[C@@H](C)CC)[C@@H](C)CC)C(=O)N[C@@H](CCC(=O)O)C(=O)NCC(=O)NCC(=O)N1CCC[C@H]1C(=O)N[C@@H](CO)C(=O)N[C@@H](CO)C(=O)NCC(=O)N[C@@H](C)C(=O)N1CCC[C@H]1C(=O)N1CCC[C@H]1C(=O)N1CCC[C@H]1C(=O)N[C@@H](CO)C(N)=O` [Example 356], the EC50 on human GLP-1R [1] (setting [5]) was more than 10.5 µM; at human GLP-1R [1] (setting [6]), more than 10.5 µM; in assay [2], 0.506 nM; in assay [3], 0.386 nM. The figures for the Ki on human GIP receptor, at human Gcg receptor and on human GLP-1R [4] were 0.35 nM, more than 1010 nM and 10.3 nM, respectively.

For `CC[C@H](C)[C@H](NC(=O)[C@H](CC(C)C)NC(=O)[C@H](Cc1ccc(O)cc1)NC(=O)[C@@H](CCC(=O)O)NC(=O)[C@@H](NC(=O)[C@H](Cc1ccccc1)NC(=O)[C@H](C)NC(=O)C(C)(C)NC(=O)[C@H](CCC(N)=O)NC(=O)[C@H](C)NC(=O)[C@H](CCCCNC(=O)COCCOCCNC(=O)COCCOCCNC(=O)CC[C@H](NC(=O)CCCCCCCCCCCCCCCCCCC(=O)O)C(=O)O)NC(=O)[C@H](CCCN)NC(=O)[C@H](CC(=O)O)NC(=O)[C@H](CC(C)C)NC(=O)[C@](C)(CC(C)C)NC(=O)[C@@H](NC(=O)[C@H](CO)NC(=O)[C@H](Cc1ccc(O)cc1)NC(=O)[C@H](CC(=O)O)NC(=O)[C@H](CO)NC(=O)[C@@H](NC(=O)[C@H](Cc1ccccc1)NC(=O)[C@@H](NC(=O)CNC(=O)[C@H](CCC(=O)O)NC(=O)C(C)(C)NC(=O)[C@H](N)Cc1ccc(O)cc1)[C@@H](C)O)[C@@H](C)O)[C@@H](C)CC)[C@@H](C)CC)C(=O)N[C@@H](CCC(=O)O)C(=O)NCC(=O)NCC(=O)N1CCC[C@H]1C(=O)N[C@@H](CO)C(=O)N[C@@H](CO)C(=O)NCC(=O)N[C@@H](C)C(=O)N1CCC[C@H]1C(=O)N1CCC[C@H]1C(=O)N1CCC[C@H]1C(=O)N[C@@H](CO)C(N)=O` [Example 357], the results for the EC50 (at human GLP-1R [1] (setting [6]); in assay [2]; in assay [3]) were 0.118 µM, 0.181 nM and 0.384 nM, respectively. Further, the “hGLP1R B-Arrestin2 % Top” value on human GLP-1R [1] turned out to be 18.2%. Moreover, the Ki on human GIP receptor was 0.316 nM; on human Gcg receptor it was more than 977 nM; on human GLP-1R [4], 7.02 nM.

Regarding `CC[C@H](C)[C@H](NC(=O)[C@H](CC(C)C)NC(=O)[C@H](Cc1ccc(O)cc1)NC(=O)[C@H](CCC(=O)O)NC(=O)[C@@H](NC(=O)[C@H](Cc1ccccc1)NC(=O)[C@H](C)NC(=O)C(C)(C)NC(=O)[C@H](CCC(N)=O)NC(=O)[C@H](C)NC(=O)[C@H](CCCCNC(=O)COCCOCCNC(=O)COCCOCCNC(=O)CC[C@H](NC(=O)CCCCCCCCCCCCCCCCCCC(=O)O)C(=O)O)NC(=O)[C@H](CCCN)NC(=O)[C@H](CC(=O)O)NC(=O)[C@H](CC(C)C)NC(=O)[C@](C)(CC(C)C)NC(=O)[C@@H](NC(=O)[C@H](CO)NC(=O)[C@H](Cc1ccc(O)cc1)NC(=O)[C@H](CC(=O)O)NC(=O)[C@H](CO)NC(=O)[C@@H](NC(=O)[C@H](Cc1ccccc1)NC(=O)[C@@H](NC(=O)CNC(=O)[C@H](CCC(=O)O)NC(=O)C(C)(C)NC(=O)[C@H](N)Cc1ccc(O)cc1)[C@@H](C)O)[C@@H](C)O)[C@@H](C)CC)C(C)C)C(=O)N[C@@H](CCC(=O)O)C(=O)NCC(=O)NCC(=O)N1CCC[C@H]1C(=O)N[C@@H](CO)C(=O)N[C@@H](CO)C(=O)NCC(=O)N[C@@H](C)C(=O)N1CCC[C@H]1C(=O)N1CCC[C@H]1C(=O)N1CCC[C@H]1C(=O)N[C@@H](CO)C(N)=O` [Example 360] (H-[dY][Aib]EGTFTSDYSI[αMeL]LD[Orn]K([AEEA-AEEA-γGlu-C20 diacid])AQ[Aib]AFVEYLIEGGPSSGAPPPS-NH2), the EC50 at human GLP-1R [1] (setting [6]) came out at 0.0395 µM; in assay [2], 0.145 nM; in assay [3], 0.197 nM. For the same compound, the “hGLP1R B-Arrestin2 % Top” value at human GLP-1R [1] is reported as 25.8%. The results for the Ki at human GIP receptor, on human Gcg receptor and on human GLP-1R [4] were 0.128 nM, 485 nM and 1.74 nM, respectively.

For the compound `CC[C@H](C)[C@H](NC(=O)[C@H](CC(C)C)NC(=O)[C@H](Cc1ccc(O)cc1)NC(=O)[C@@H](CCC(=O)O)NC(=O)[C@@H](NC(=O)[C@H](Cc1ccccc1)NC(=O)[C@H](C)NC(=O)C(C)(C)NC(=O)[C@H](CCC(N)=O)NC(=O)[C@H](C)NC(=O)[C@H](CCCCNC(=O)COCCOCCNC(=O)COCCOCCNC(=O)CC[C@H](NC(=O)CCCCCCCCCCCCCCCCCCC(=O)O)C(=O)O)NC(=O)[C@H](CCCN)NC(=O)[C@H](CC(=O)O)NC(=O)[C@H](CC(C)C)NC(=O)[C@](C)(CC(C)C)NC(=O)[C@@H](NC(=O)[C@H](CO)NC(=O)[C@H](Cc1ccc(O)cc1)NC(=O)[C@H](CC(=O)O)NC(=O)[C@H](CO)NC(=O)[C@@H](NC(=O)[C@H](Cc1ccccc1)NC(=O)[C@@H](NC(=O)CNC(=O)[C@H](CCC(=O)O)NC(=O)C(C)(C)NC(=O)[C@H](N)Cc1ccc(O)cc1)[C@@H](C)O)[C@@H](C)O)[C@@H](C)CC)C(C)C)C(=O)N[C@@H](C)C(=O)NCC(=O)NCC(=O)N1CCC[C@H]1C(=O)N[C@@H](CO)C(=O)N[C@@H](CO)C(=O)NCC(=O)N[C@@H](C)C(=O)N1CCC[C@H]1C(=O)N1CCC[C@H]1C(=O)N1CCC[C@H]1C(=O)N[C@@H](CO)C(N)=O` [Example 362] (H-[dY][Aib]EGTFTSDYSI[αMeL]LD[Orn]K([AEEA-AEEA-γGlu-C20 diacid])AQ[Aib]AFV[dE]YLIAGGPSSGAPPPS-NH2), the half-maximal effective concentration (EC50) at human GLP-1R [1] (setting [5]) is more than 11 µM; at human GLP-1R [1] (setting [6]) it was more than 11 µM; in assay [2], 0.365 nM; in assay [3], 0.302 nM. Further, the figures for the Ki on human GIP receptor, on human Gcg receptor and at human GLP-1R [4] were 0.337 nM, more than 1050 nM and 6.95 nM, respectively.

One may read the EC50 as the midpoint of the concentration-response curve. Usually Ki stands for a dissociation constant, usually derived from enzyme kinetics or from competition with a known ligand.
